Laboratory results as given in ChEMBL document CHEMBL4400584, “Relative Configurational Assignment of 4-Hydroxyprorocentrolide and Prorocentrolide C Isolated from a Benthic Dinoflagellate ( Prorocentrum lima)” (J Nat Prod, 2019).

Experiments:
Assay type in all cases: functional, cell-based
HCT-116 = assay: Cytotoxicity against human HCT116 cells assessed as reduction in cell viability after 48 hrs by MTT assay; conditions: HCT-116, 48 h
N2a = assay: Cytotoxicity against mouse Neuro2a cells assessed as reduction in cell viability after 48 hrs by MTT assay
HepG2 = assay: Cytotoxicity against human HepG2 cells assessed as reduction in cell viability after 48 hrs by MTT assay; conditions: HepG2, 48 h

Row | SMILES | IC50 (HCT-116) | IC50 (N2a) | IC50 (HepG2)
1 | C=C1CCC[C@H]2O[C@H](CC3=C[C@@H]4/C(C)=C/C[C@@H](C)C[C@@H](/C=C(\C)[C@@H](O)[C@@H]5C[C@@H](O)[C@H](O)[C@@H](CC[C@H](O)/C=C/C(C)=C/CCC6=NCC[C@H](C3)[C@@]64C)O5)OC(=O)C[C@@H]3O[C@H]([C@@H](O)[C@H]3O)[C@@H](O)C1)C[C@@H](O)[C@@H]2O | > 10 µM | > 10 µM | > 10 µM
2 | C=C1CC/C=C/[C@@H](O)[C@H](O)C[C@H](O)CC2=C[C@@H]3/C(C)=C/C[C@@H](C)C[C@@H](/C=C(\C)[C@@H](O)[C@@H]4C[C@@H](O)[C@H](O)[C@@H](CC[C@H](O)/C=C/C(C)=C/CCC5=NCC[C@H](C2)[C@@]53C)O4)OC(=O)C[C@@H]2O[C@H]([C@@H](O)[C@H]2O)[C@@H](O)C1 | 2.2 µM | 5.2 µM | > 50 µM
